Drawing on patent US10138253B2, “Imidazopyridine macrocycles as inhibitors of human immunodeficiency virus replication” (priority 2015, dated 2018), this text covers ring closure, yield of all isomers, ring closure, isolated yield and EC50 for 13 molecules.

For data set [1] the following is noted: from COC(=O)[C@@H](OC(C)(C)C)c1c(C)c(C)c2nc(-c3cccc(-c4cc(C)ccc4O)c3)cn2c1N1CCC(C)(OCCOC[C@@H](C)O)CC1; ether bond; PPh3/DIAD; THF; 3.49 mM; 25.0 °C; 16.0 h.
For data set [2] the following is noted: from COC(=O)[C@@H](OC(C)(C)C)c1c(C)c(C)c2nc(-c3cccc(-c4cc(C)ccc4O)c3)cn2c1N1CCC(C)(OCCOC[C@@H](C)O)CC1; ether bond; 20-membered ring; PPh3/DIAD; THF; 3.49 mM; 25.0 °C; 16.0 h.
The next data set concerns NL-RLuc virus. Description: Inhibition of HIV replication (NL-RLuc virus, luciferase readout, MT-2 cells). Type of data set: cell-based. The note with it: Human immunodeficiency virus 1, MT2, 120 h. The source says: Inhibition of HIV Replication:
A recombinant NL-RLuc proviral clone was constructed in which a section of the nef gene from NL4-3 was replaced with the Renilla Luciferase gene. This virus is fully infectious and can undergo multiple cycles of replication in cell culture. In addition, the luciferous reporter provides a simple and easy method for quantitating the extent of virus growth and consequently, the antiviral activity of test compounds. The plasmid pNLRLuc contains the proviral NL-Rluc DNA cloned into pUC18 at the PvuII site. The NL-RLuc virus was prepared by transfection of 293T cells with the plasmid pNLRLuc. Transfections were performed using the LipofectAMINE PLUS kit from Invitrogen (Carlsbad, Calif.) according to the manufacturer and the virus generated was titered in MT-2 cells. For susceptibility analyses, the titrated virus was used to infect MT-2 cells in the presence of compound, and after 5 days of incubation, cells were processed and quantitated for virus growth by the amount of expressed luciferase. Assay media was RPMI 1640 supplemented with 10% heat inactivated fetal bovine serum (FBS), 100 units/ml penicillin G/100 units/ml streptomycin, 10 mM HEPES buffer pH 7.55 and 2 mM L-glutamine. The results from at least 2 experiments were used to calculate the EC50 values. Luciferase was quantitated using the Dual Luciferase kit from Promega (Madison, Wis.). Susceptibility of viruses to compounds was determined by incubation in the presence of serial dilutions of the compound. The 50% effective concentration (EC50) was calculated by using the exponential form of the median effect equation where (Fa)=1/[1+(ED50/drug conc.)^m] (Johnson V A, Byington R T. Infectivity Assay. In Techniques in HIV Research. ed. Aldovini A, Walker B D. 71-76. New York: Stockton Press. 1990). Activity equal to A refers to a compound having an EC50≤100 nM, while B and C denote compounds having an EC50 between 100 nM and luM (B) or >1 uM (C).

Like-named read-outs stand apart in the source and are kept apart here. A value given as a limit tells only on which side of the number the result lay.

In turn, `COC(=O)[C@@H](OC(C)(C)C)c1c(C)c(C)c2nc3cn2c1N1CCC(C)(CC1)OCCOC[C@H](C)Oc1ccc(C)cc1-c1cccc-3c1` yielded a ring closure, yield of all isomers in data set [1] of 60%. This molecule registered a ring closure, isolated yield in data set [2] of 60%.
For the molecule `COCc1c(C)c([C@H](OC(C)(C)C)C(=O)O)c2n3c(Cl)c(nc13)-c1cccc(c1)-c1cc(F)c(F)cc1O[C@@H](C)COCCOC1(C)CCN2CC1` [Example 11, (2S)-2-(tert-Butoxy)-2-[(22S)-8-chloro-17,18-difluoro-5-(methoxymethyl)-4,22,28-trimethyl-21,24,27-trioxa-1,7,34-triazahexacyclo[26.2.2.1^6,^9.1^1^0,^1^4.0^2,^7.0^1^5,^2^0]tetratriaconta-2,4,6(34),8,10(33),11,13,15(20),16,18-decaen-3-yl]acetic Acid], the EC50 in the data set with NL-RLuc virus (read-out: Activity) was less than 0.1 µM.
In the case of `Cc1cc2nc3cn2c(c1[C@H](OC(C)(C)C)C(=O)O)N1CCC(C)(CC1)OCCOC[C@H](C)Oc1cc(F)c(F)cc1-c1cccc-3c1` [Example 1, (2S)-2-(tert-Butoxy)-2-[(22S)-17,18-difluoro-4,22,28-trimethyl-21,24,27-trioxa-1,7,34-triazahexacyclo[26.2.2.1^6,^9.1^1^0,^1^4.0^2,^7.0^1^5,^2^0]tetratriaconta-2,4,6(34),8,10(33),11,13,15(20),16,18-decaen-3-yl]acetic Acid], the values for the EC50 in the data set on NL-RLuc virus (read-out: Activity) and in the data set on NL-RLuc virus (read-out: EC50 μM) were less than 0.1 µM and 0.001 µM, respectively.
Taken in the same sequence, the figures for `Cc1ccc2c(c1)-c1cccc(c1)-c1cn3c(c([C@H](OC(C)(C)C)C(=O)O)c(C)cc3n1)N1CCC(C)(CC1)OCCOC[C@H](C)O2` [Example 25, (2S)-2-(tert-Butoxy)-2-[(22S)-4,17,22,28-tetramethyl-21,24,27-trioxa-1,7,34-triazahexacyclo[26.2.2.1^6,^9.1^1^0,^1^4.0^2,^7.0^1^5,^2^0]tetratriaconta-2,4,6(34),8,10(33),11,13,15(20),16,18-decaen-3-yl]acetic acid] were less than 0.1 µM and 0.002 µM.
In the case of `Cc1c([C@H](OC(C)(C)C)C(=O)O)c2n3c(Cl)c(nc3c1CO)-c1cccc(c1)-c1cc(F)c(F)cc1O[C@@H](C)COCCOC1(C)CCN2CC1` [Example 9, (2S)-2-(tert-Butoxy)-2-[(22S)-8-chloro-17,18-difluoro-5-(hydroxymethyl)-4,22,28-trimethyl-21,24,27-trioxa-1,7,34-triazahexacyclo[26.2.2.1^6,^9.1^1^0,^1^4.0^2,^7.0^1^5,^2^0]tetratriaconta-2,4,6(34),8,10(33),11,13,15(20),16,18-decaen-3-yl]acetic Acid], the EC50 with NL-RLuc virus (read-out: Activity) was less than 0.1 µM.
On the same count and under the same terms, then `Cc1c([C@H](OC(C)(C)C)C(=O)O)c2n3cc(nc3c1C)-c1cccc(c1)-c1cc(F)c(F)cc1O[C@@H](C)COCCOC1(C)CCN2CC1` [Example 2, (2S)-2-(tert-Butoxy)-2-[(22S)-17,18-difluoro-4,5,22,28-tetramethyl-21,24,27-trioxa-1,7,34-triazahexacyclo[26.2.2.1^6,^9.1^1^0,^1^4.0^2,^7.0^1^5,^2^0]tetratriaconta-2,4,6(34),8,10(33),11,13,15(20),16,18-decaen-3-yl]acetic Acid], with less than 0.1 µM; and `Cc1c([C@H](OC(C)(C)C)C(=O)O)c2n3cc(nc3c1C)-c1cccc(c1)-c1cc(F)ccc1O[C@@H](C)COCCOC1(C)CCN2CC1` [Example 28, (2S)-2-(tert-Butoxy)-2-((6S,Z)-45-fluoro-14,27,28,6-tetramethyl-5,8,11-trioxa-2(5,2)-imidazo[1,2-a]pyridina-1(1,4)-piperidina-3(1,3),4(1,2)-dibenzenacycloundecaphane-26-yl)acetic Acid], with less than 0.1 µM; and `Cc1cc(F)c2c(c1)O[C@@H](C)COCCOC1(C)CCN(CC1)c1c([C@H](OC(C)(C)C)C(=O)O)c(C)cc3nc(cn13)-c1cccc-2c1` [Example 18, (2S)-2-(tert-Butoxy)-2-[(22S)-16-fluoro-4,18,22,28-tetramethyl-21,24,27-trioxa-1,7,34-triazahexacyclo[26.2.2.1^6,^9.1^1^0,^1^4.0^2,^7.0^1^5,^2^0]tetratriaconta-2,4,6(34),8,10(33),11,13,15(20),16,18-decaen-3-yl]acetic Acid], with less than 0.1 µM.
On the same count and under the same terms, then `Cc1c([C@H](OC(C)(C)C)C(=O)O)c2n3cc(nc3c1C#N)-c1cccc(c1)-c1cc(F)c(F)cc1O[C@@H](C)COCCOC1(C)CCN2CC1` [Example 17, (2S)-2-(tert-Butoxy)-2-[(22S)-5-cyano-17,18-difluoro-4,22,28-trimethyl-21,24,27-trioxa-1,7,34-triazahexacyclo[26.2.2.1^6,^9.1^1^0,^1^4.0^2,^7.0^1^5,^2^0]tetratriaconta-2,4,6(34),8,10(33),11,13,15(20),16,18-decaen3-yl]acetic Acid], with less than 0.1 µM; and `Cc1c([C@H](OC(C)(C)C)C(=O)O)c2n3c(Cl)c(nc3c1C)-c1cccc(c1)-c1cc(F)c(F)cc1O[C@@H](C)COCCOC1(C)CCN2CC1` [Example 8, (2S)-2-(tert-Butoxy)-2-[(22S)-8-chloro-17,18-difluoro-4,5,22,28-tetramethyl-21,24,27-trioxa-1,7,34-triazahexacyclo[26.2.2.1^6,^9.1^1^0,^1^4.0^2,^7.0^1^5,^2^0]tetratriaconta-2,4,6(34),8,10(33),11,13,15(20),16,18-decaen-3-yl]acetic Acid], with less than 0.1 µM.
With `Cc1c([C@@H](OC(C)(C)C)C(=O)O)c2n3cc(nc3c1C)-c1cccc(c1)-c1cc(F)c(F)cc1O[C@@H](C)COCCOC1(C)CCN2CC1` [Example 3, (2R)-2-(tert-butoxy)-2-((6S,Z)-44,45-difluoro-14,27,6-trimethyl-5,8,11-trioxa-2(5,2)-imidazo[1,2-a]pyridina-1(1,4)-piperidina-3(1,3),4(1,2)-dibenzenacycloundecaphane-26-yl)acetic Acid], the EC50 is 0.1 to 1 µM in the data set with NL-RLuc virus (read-out: Activity) and 0.305 µM in the data set with NL-RLuc virus (read-out: EC50 μM).
With `Cc1ccc2c(c1)-c1cccc(c1)-c1nc3c(C)c(C)c([C@H](OC(C)(C)C)C(=O)O)c(n3c1Cl)N1CCC(C)(CC1)OCCOC[C@H](C)O2` [Example 27, (2S)-2-(tert-Butoxy)-2-[(22S)-8-chloro-4,5,17,22,28-pentamethyl-21,24,27-trioxa-1,7,34-triazahexacyclo[26.2.2.1^6,^9.1^1^0,^1^4.0^2,^7.0^1^5,^2^0]tetratriaconta-2,4,6(34),8,10(33),11,13,15(20),16,18-decaen-3-yl]acetic Acid], in the data set with NL-RLuc virus (read-out: Activity), the EC50 was less than 0.1 µM.
Same read-out and setting: as for `CCC(C)(C)O[C@H](C(=O)O)c1c(C)c(C)c2nc3cn2c1N1CCC(C)(CC1)OCCOC[C@H](C)Oc1cc(F)c(F)cc1-c1cccc-3c1` [Example 4, (2S)-2-[(22S)-17,18-Difluoro-4,5,22,28-tetramethyl-21,24,27-trioxa-1,7,34-triazahexacyclo[26.2.2.1^6,^9.1^1^0,^1^4.0^2,^7.0^1^5,^2^0]tetratriaconta-2,4,6(34),8,10(33),11,13,15(20),16,18-decaen-3-yl]-2-[(2-methylbutan-2-yl)oxy]acetic Acid], the figure is less than 0.1 µM.
